This is an account of results in patent US20230167127A1, “COMPOUNDS AND THEIR USE IN THE TREATMENT OF BACTERIAL INFECTION” (Hoffmann-La Roche Inc., priority 2020, published 2023).

Structures can show the parent of a compound that is named as a salt.

One assay has as its system Escherichia coli ATCC 25922. Description: 50% growth inhibitory concentration (IC50) determination, Iso-Sensitest broth dilution. The class given is cell-based. To be noted: Escherichia coli, ATCC25922, 16 h, strain Escherichia coli ATCC 25922; 10-point broth dilution, optical density at 600 nm over 16 h; read-out: Escherichia coli growth inhibition IC50. The procedure, abridged: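 Growth was tracked as optical density at 600 nm every 20 minutes for 16 h at 35±2° C. Compounds from DMSO stocks were serially diluted twofold over 10 points (e.g. 50–0.097 μM final) in Iso-Sensitest broth. Inhibition computed in log-phase growth to give IC50.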
A general note: In broth dilution the organism is exposed to a series of concentrations in liquid medium.
In general, IC50 refers to the midpoint of a concentration-inhibition curve. With `CC(=O)N1CC(Oc2cc(F)c3c(c2)CC(CNCCC2CN(c4cnc5c(n4)NC(=O)CO5)C(=O)O2)C3)C1` (stereo not shown) [Example 354, 6-[5-[2-[[6-(1-acetylazetidin-3-yl)oxy-4-fluoro-2,3-dihydro-1H-inden-2-yl]methylamino]ethyl]-2-oxo-1,3-oxazolidin-3-yl]-4H-pyrazino[2,3-b][1,4]oxazin-3-one; formic acid], the IC50 came to 392 nM. The same measure, in the same setting: the figure for `O=C1COc2ncc(N3CC(CCNCC4Cc5cc(OCC(=O)NC6CC6)cc(F)c5C4)OC3=O)nc2N1` (stereo not shown) [Example 346, N-cyclopropyl-2-[[7-fluoro-2-[[2-[2-oxo-3-(3-oxo-4H-pyrazino[2,3-b][1,4]oxazin-6-yl)-1,3-oxazolidm-5-yl]ethylamino]methyl]-2,3-dihydro-1H-inden-5-yl]oxy]acetamide; formic acid] is 311 nM; for `NC1c2cc(OCC3(N)CC3)cc(Cl)c2CC1CNCCC1CN(c2ccc3c(n2)NC(=O)CO3)C(=O)O1` (racemic) [Example 273, 6-[2-Oxo-5-[2-[[rac-1,2-trans-1-amino-6-[(1-aminocyclopropyl)methoxy]-4-chloro-2,3-dihydro-1H-inden-2-yl]methylamino]ethyl]-1,3-oxazolidin-3-yl]-4H-pyrido[3,2-b][1,4]oxazin-3-one; formic acid] it is 148 nM. `O=C1COc2ccc(N3CC(CCCNC4Cc5ccccc5C4)OC3=O)nc2N1` (stereo not shown) [Example 9, 6-[5-[3-(2,3-dihydro-1H-inden-2-ylamino)propyl]-2-oxo-1,3-oxazolidin-3-yl]-4H-pyrido[3,2-b][1,4]oxazin-3-one; formic acid]: the IC50 came out at 439 nM. Same read-out and setting: the figure for `NC1(COc2cc(F)c3c(c2)CC(CNCCC2CN(c4cnc5c(n4)NC(=O)CO5)C(=O)O2)C3)CC1` (stereo not shown) [Example 161, 6-[5-[2-[[6-[(1-aminocyclopropyl)methoxy]-4-fluoro-2,3-dihydro-1H-inden-2-yl]methylamino]ethyl]-2-oxo-1,3-oxazolidin-3-yl]-4H-pyrazino[2,3-b][1,4]oxazin-3-one] is below 97.7 nM; for `O=C1COc2ncc(N3CC(CCNCC4Cc5cc(OCCN6C(=O)CCC6=O)cc(F)c5C4)OC3=O)nc2N1` (stereo not shown) [Example 345] it is 659 nM; for `CC(N)COc1cc(F)c2c(c1)CC(CN1CCC3(CC1)CN(c1cnc4c(n1)NC(=O)CO4)C(=O)O3)C2` (stereo not shown) [Example 260, 6-[8-[[6-(2-Aminopropoxy)-4-fluoro-2,3-dihydro-1H-inden-2-yl]methyl]-2-oxo-1-oxa-3,8-diazaspiro[4.5]decan-3-yl]-4H-pyrazino[2,3-b][1,4]oxazin-3-one; formic acid] it is below 97.7 nM.

With `Cc1ncc2c(c1F)CC(CNCC[C@@H]1CN(c3cnc4c(n3)NC(=O)CO4)C(=O)O1)C2` (stereo partly drawn) [Example 339, 6-[(5R)-5-[2-[(4-fluoro-3-methyl-6,7-dihydro-5H-cyclopenta[c]pyridin-6-yl)methylamino]ethyl]-2-oxo-1,3-oxazolidin-3-yl]-4H-pyrazino[2,3-b][1,4]oxazin-3-one], the IC50 is 145 nM. On the same count and under the same terms, with `NC1c2cccc(Cl)c2CC1CNCCC1CN(c2ccc3c(n2)NC(=O)CS3)C(=O)O1` (racemic) [Example 246, 5-[2-[(rac-1,2-trans-1-amino-4-chloro-2,3-dihydro-1H-inden-2-yl)methylamino]ethyl]-3-(3-oxo-4H-pyrido[3,2-b][1,4]thiazin-6-yl)-1,3-oxazolidin-2-one] the figure was below 97.7 nM.

As for `Cc1ncc(Cl)c2c1CC(CNCCC1CN(c3cnc4c(n3)NC(=O)CO4)C(=O)O1)C2N` (racemic) [Example 263, 6-[2-oxo-5-[2-[[rac-5,6-trans-5-amino-4-chloro-1-methyl-6,7-dihydro-5H-cyclopenta[c]pyridin-6-yl]methylamino]ethyl]-1,3-oxazolidin-3-yl]-4H-pyrazino[2,3-b][1,4]oxazin-3-one], the IC50 was 127 nM. Still for that read-out and setting: the figure for `Cc1nc(OCC2CNC2)c(C)c2c1CC(CNCCC1CN(c3ccc4c(n3)NC(=O)CO4)C(=O)O1)C2` (stereo not shown) [Example 184, 6-[5-[2-[[3-(azetidin-3-ylmethoxy)-1,4-dimethyl-6,7-dihydro-5H-cyclopenta[c]pyridin-6-yl]methylamino]ethyl]-2-oxo-1,3-oxazolidin-3-yl]-4H-pyrido[3,2-b][1,4]oxazin-3-one hydrochloride] is 425 nM; for `NC1c2cccc(Cl)c2CC1CCNCC1CN(c2ccc3c(n2)NC(=O)CO3)C(=O)O1` (racemic) [Example 194, 6-[2-oxo-5-[[2-[rac-1,2-trans-1-amino-4-chloro-2,3-dihydro-1H-inden-2-yl]ethylamino]methyl]-1,3-oxazolidin-3-yl]-4H-pyrido[3,2-b][1,4]oxazin-3-one] it is below 97.7 nM; for `Cc1ncc(C#N)c2c1CC(CNCCC1CN(c3cnc4c(n3)NC(=O)CO4)C(=O)O1)C2` (stereo not shown) [Example 291, 1-methyl-6-[[2-[2-oxo-3-(3-oxo-4H-pyrazino[2,3-b][1,4]oxazin-6-yl)-1,3-oxazolidin-5-yl]ethylamino]methyl]-6,7-dihydro-5H-cyclopenta[c]pyridine-4-carbonitrile;2,2,2-trifluoroacetic acid] it is below 97.7 nM. Same read-out and setting: the figure for `NC1c2cccc(Cl)c2CC1CCN1CC2(C1)CN(c1ccc3c(n1)NC(=O)CO3)C(=O)O2` (racemic) [Example 195, 6-[6-oxo-2-[2-[rac-1,2-trans-1-amino-4-chloro-2,3-dihydro-1H-inden-2-yl]ethyl]-5-oxa-2,7-diazaspiro[3.4]octan-7-yl]-4H-pyrido[3,2-b][1,4]oxazin-3-one; 2,2,2-trifluoroacetic acid] is below 97.7 nM; for `Cc1ncc(F)c2c1CC(CNCCC1CC(=O)N(c3ccc4c(n3)NC(=O)CO4)C1)C2` (stereo not shown) [Example 417, 6-[4-[2-[(4-Fluoro-1-methyl-6,7-dihydro-5H-cyclopenta[c]pyridin-6-yl)methylamino]ethyl]-2-oxopyrrolidin-1-yl]-4H-pyrido[3,2-b][1,4]oxazin-3-one] it is below 97.7 nM. On the same count and under the same terms, with `Cc1nc(OCC2(N)CC2)c(C#N)c2c1CC(CN1CCC3(CC1)CN(c1ccc4c(n1)NC(=O)CO4)C(=O)O3)C2` (stereo not shown) [Example 215, 3-[(1-aminocyclopropyl)methoxy]-1-methyl-6-[[2-oxo-3-(3-oxo-4H-pyrido[3,2-b][1,4]oxazin-6-yl)-1-oxa-3,8-diazaspiro[4.5]decan-8-yl]methyl]-6,7-dihydro-5H-cyclopenta[c]pyridine-4-carbonitrile] the figure was below 97.7 nM; with `O=C1COc2ncc(N3CC(CCNCC4Cc5cc(OC6CNC6)cc(F)c5C4)OC3=O)nc2N1` (stereo not shown) [Example 358, 6-[5-[2-[[6-(azetidin-3-yloxy)-4-fluoro-2,3-dihydro-1H-inden-2-yl]methylamino]ethyl]-2-oxo-1,3-oxazolidin-3-yl]-4H-pyrazino[2,3-b][1,4]oxazin-3-one; hydrochloride], below 97.7 nM. Consider `NC1c2cccc(Cl)c2CC1CNCCc1cn(-c2ccc3c(n2)NC(=O)CO3)c(=O)o1` (racemic) [Example 170, 6-[2-oxo-5-[2-[[rac-1,2-trans-1-amino-4-chloro-2,3-dihydro-1H-inden-2-yl]methylamino]ethyl]-1,3-oxazol-3-yl]-4H-pyrido[3,2-b][1,4]oxazin-3-one], for which the IC50 is below 97.7 nM. The same measure, in the same setting: the figure for `Cc1nc(Cl)nc2c1CC(CNCCC1CN(c3ccc4c(n3)NC(=O)CO4)C(=O)O1)C2` (stereo not shown) [Example 385, 6-[5-[2-[(2-chloro-4-methyl-6,7-dihydro-5H-cyclopenta[d]pyrimidin-6-yl)methylamino]ethyl]-2-oxo-1,3-oxazolidin-3-yl]-4H-pyrido[3,2-b][1,4]oxazin-3-one] is 923 nM; for `O=C1COc2ccc(N3C[C@@H](NC4CC(NC5Cc6cccc(F)c6C5)C4)CC3=O)nc2N1` (stereo partly drawn) [Example 24, 6-[(4S)-4-[[3-[(4-fluoro-2,3-dihydro-1H-inden-2-yl)amino]cyclobutyl]amino]-2-oxopyrrolidin-1-yl]-4H-pyrido[3,2-b][1,4]oxazin-3-one] it is 1810 nM. The same measure, in the same setting: with `N#CCOc1cc(F)c2c(c1)CC(CNCCC1CN(c3cnc4c(n3)NC(=O)CO4)C(=O)O1)C2` (stereo not shown) [Example 366, 2-[[7-fluoro-2-[[2-[2-oxo-3-(3-oxo-4H-pyrazino[2,3-b][1,4]oxazin-6-yl)-1,3-oxazolidin-5-yl]ethylamino]methyl]-2,3-dihydro-1H-inden-5-yl]oxy]acetonitrile; formic acid] the figure was 144 nM.

Take `Cc1ncc2c(c1F)CC(CNCC[C@H]1CN(c3cnc4c(n3)NC(=O)CO4)C(=O)O1)C2` (stereo partly drawn) [Example 338, 6-[(5S)-5-[2-[(4-fluoro-3-methyl-6,7-dihydro-5H-cyclopenta[c]pyridin-6-yl)methylamino]ethyl]-2-oxo-1,3-oxazolidin-3-yl]-4H-pyrazino[2,3-b][1,4]oxazin-3-one]: the IC50 was below 97.7 nM. Same read-out and setting: the figure for `Cc1ncc(C#N)c2c1CC(CNCCC1CN(c3ccc4c(n3)NC(=O)CO4)C(=O)O1)C2` (stereo not shown) [Example 47, 1-methyl-6-[[2-[2-oxo-3-(3-oxo-4H-pyrido[3,2-b][1,4]oxazin-6-yl)-1,3-oxazolidin-5-yl]ethylamino]methyl]-6,7-dihydro-5H-cyclopenta[c]pyridine-4-carbonitrile; formic acid] is below 97.7 nM.

Still in this assay, the particulars now being: strain Escherichia coli ATCC 25922; 10-point broth dilution, optical density at 600 nm over 16 h; read-out: Escherichia coli growth inhibition IC50.
Regarding `N#Cc1cccc2c1CC(NCC(O)CC1CN(c3cnc4c(n3)NC(=O)CO4)C(=O)O1)C2` (single isomer, unassigned; isomer b) [Example 82, 2-[[2-hydroxy-3-[2-oxo-3-(3-oxo-4H-pyrazino[2,3-b][1,4]oxazin-6-yl)-1,3-oxazolidin-5-yl]propyl]amino]-2,3-dihydro-1H-indene-4-carbonitrile, Isomer B; formic acid], the IC50 was 152 nM. Same read-out and setting: the figure for `Cc1ncc(F)c2c1CC(NC1CC(C3CN(c4cnc5c(n4)NC(=O)CO5)C(=O)O3)C1)C2` (single isomer, unassigned; isomer b) [Example 329, 6-[5-[3-[(4-fluoro-1-methyl-6,7-dihydro-5H-cyclopenta[c]pyridin-6-yl)amino]cyclobutyl]-2-oxo-1,3-oxazolidin-3-yl]-4H-pyrazino[2,3-b][1,4]oxazin-3-one, Isomer B] is 453 nM.
